Results as given in US9408910B2, “Anticancer prodrug activated by radiation or ultraviolet treatment and use thereof” (priority 2011, dated 2016).
Numbered stars: 1 amine (or outer) side, 2 acyl side, 3 side chain; on linkers, the order of the positions; unused ones are H or OH. Square brackets hold non-standard residues; d marks the D form. Peptide text beside a SMILES is read from it. * marks the point of attachment. Doxorubicin(3'-N) = COc1cccc2c1C(=O)c1c(O)c3c(c(O)c1C2=O)C[C@@](O)(C(=O)CO)C[C@@H]3O[C@H]1C[C@H](N*)[C@H](O)[C@H](C)O1; PABC = O=C(OCc1ccc(N[*:1])cc1)[*:2]

Experiments:
SCC 7 cells = test: Cytotoxicity evaluation by in vitro MTT assay (Example 4); format: cell-based; settings: no caspase-3 expression
Method: Cytotoxicity was evaluated by in vitro MTT assay.
In detail, SCC 7 cells were radiated at a dose of 1 Gy, 5 Gy, or 10 Gy, and then the medium was removed after 2 h, 6 h, 12 h, 24 h, or 48 h. 20 μl of MTT solution per 100 μl of medium was treated, and then reacted at 30° C. for 1 hour in the dark. Thereafter, the cells were washed with PBS three times, and the medium was removed. 100 μl of DMSO was added to dissolve MTT formazan, followed by ELASA (test wavelength: 570 nm).
That is, total 6 experiments were carried out, and the results are shown FIGS. 9a to 9f. a) Radiation of cells at a radiation dose of 1 Gy, 5 Gy, 10 Gy, 15 Gy, 20 Gy, followed by MTT assay (radiation MTT assay), b) Treatment of cells with doxorubicin at a dose of 0.1 μM, 0.5 μM, 1 μM, and 5 μM, followed by MTT assay (Doxorubicin MIT assay), c) Treatment of cells with anticancer prodrug (KGDEVD-DOX) prepared in Example 1, followed by MTT assay (KGDEVD-DOX MTT assay), d) Treatment of cells with caspase-3-treated anticancer prodrug (KGDEVD-DOX) prepared in Example 1, followed by MIT assay (Cleaved Dox by Caspase-3 MIT assay), e) Treatment of cells with doxorubicin and radiation, followed by MIT assay (Doxorubicin+RT MTT assay), f) Treatment of cells with […], followed by MTT assay (KGDEVD-DOX+RT MTT assay). […]

[1] = test system: tumor mouse models transplanted with SCC 7 cell line; settings: 5 Gy radiation, then 10 mg/kg i.v. every day for 3 days; FIG. 18
Method: That is, tumor mouse models transplanted with SCC 7 cell line were radiated using a gamma knife (5 Gy). 24 hrs after radiation, the caspase-3 sensitive anticancer prodrug was administered into the animals via intravenous injection (10 mg/kg). At this time, the same dose of the drug was administered into the animals every day for 3 days, and then tumor growth and survival rate were measured every day until the experiments were terminated after radiation. The organs were removed from each experimental group after completion of the experiment, and cytotoxicity of the drug was examined.

[2] = test system: tumor mouse models transplanted with SCC 7 cell line; test: Anti-tumor therapeutic effect of the anticancer prodrug with radiation (Example 3); format: in vivo; settings: administered together with radiation (5 Gy, gamma knife); prodrug 3 mg/kg i.v. 24 hr after radiation and again after 2 days; FIG. 8

| SMILES | cytotoxicity when caspase-3 was not expressed (SCC 7 cells) | side effects (cytotoxicity of the drug in removed organs) [1] | tumor size (tumor growth) [2] |
| --- | --- | --- | --- |
| COc1cccc2c1C(=O)c1c(O)c3c(c(O)c1C2=O)C[C@@](O)(C(=O)CO)C[C@@H]3O[C@H]1C[C@H](NC(=O)OCc2ccc(NC(=O)[C@H](CC(=O)O)NC(=O)[C@@H](NC(=O)[C@H](CCC(=O)O)NC(=O)[C@H](CC(=O)O)NC(=O)CNC(=O)[C@H](CCCCN)NC(C)=O)C(C)C)cc2)[C@H](O)[C@H](C)O1 [KGDEVD-DOX, Ac-Lys-Gly-Asp-Glu-Val-Asp-PABC-DOX] (Ac-KGDEVD[PABC]-{Doxorubicin(3'-N)}) | no cytotoxicity | reduced side effects | – |
| COc1cccc2c1C(=O)c1c(O)c3c(c(O)c1C2=O)C[C@@](O)(C(=O)CO)C[C@@H]3O[C@H]1C[C@H](N)[C@H](O)[C@H](C)O1 [doxorubicin] | – | – | tumor was reduced in size |
